In patent US11254686B1 (Corvus Pharmaceuticals, Inc., priority 2017, dated 2022):

Assays:
Type in all cases: biochemical
adenosine A2B receptor = adenosine A2B receptor (Homo sapiens (Human), UniProt P29275); assay: Adenosine receptor activity assay (Table 1), A2B activity; conditions: for Ratio: A2A activity to the A2B activity, A2A/A2B; for IC50: read-out: Ave A2B cAMP IC50
adenosine A2A receptor = adenosine A2A receptor (Homo sapiens (Human), UniProt P29274); assay: Adenosine receptor activity assay (Table 1), A2A activity; conditions: read-out: Ave A2A cAMP IC50
adenosine A2A receptor, sequence (P29274 whole entry): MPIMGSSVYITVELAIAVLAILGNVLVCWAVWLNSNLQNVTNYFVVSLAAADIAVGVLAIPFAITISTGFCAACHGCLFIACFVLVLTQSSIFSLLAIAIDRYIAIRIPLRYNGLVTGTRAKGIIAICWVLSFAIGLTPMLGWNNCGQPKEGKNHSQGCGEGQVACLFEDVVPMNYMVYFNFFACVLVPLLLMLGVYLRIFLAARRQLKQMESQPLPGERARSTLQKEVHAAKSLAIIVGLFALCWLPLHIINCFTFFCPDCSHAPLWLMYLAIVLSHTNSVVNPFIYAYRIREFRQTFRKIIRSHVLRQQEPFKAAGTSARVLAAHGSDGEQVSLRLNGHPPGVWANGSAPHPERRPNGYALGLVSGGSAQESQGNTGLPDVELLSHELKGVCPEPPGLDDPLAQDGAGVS

adenosine A1 receptor = adenosine A1 receptor (Homo sapiens (Human), UniProt P30542); assay: Adenosine receptor activity assay (Table 1), A1 cAMP
adenosine A1 receptor, sequence (P30542 whole entry): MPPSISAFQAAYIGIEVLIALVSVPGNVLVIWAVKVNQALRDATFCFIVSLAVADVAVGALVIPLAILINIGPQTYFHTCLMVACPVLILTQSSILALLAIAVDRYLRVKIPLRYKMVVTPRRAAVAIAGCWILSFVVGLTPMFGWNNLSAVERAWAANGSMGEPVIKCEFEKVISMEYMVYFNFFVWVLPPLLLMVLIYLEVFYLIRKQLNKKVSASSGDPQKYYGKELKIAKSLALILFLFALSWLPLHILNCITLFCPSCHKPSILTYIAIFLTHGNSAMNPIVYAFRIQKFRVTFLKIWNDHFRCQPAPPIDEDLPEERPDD
Experimental: (§1) Table 1. Compounds (e.g., Adenosine Receptor modulators) and activity assay results. The legend is as follows: A=<10 nM; B=10-50 nM; C=50-100 nM; D=100-500; and E=>500 nM. The ratio corresponds to the A2A activity to the A2B activity; or A2A/A2B.

adenosine A3 receptor = adenosine A3 receptor (Homo sapiens (Human), UniProt P0DMS8); assay: Adenosine receptor activity assay (Table 1), A3 cAMP
adenosine A3 receptor, sequence (P0DMS8 whole entry): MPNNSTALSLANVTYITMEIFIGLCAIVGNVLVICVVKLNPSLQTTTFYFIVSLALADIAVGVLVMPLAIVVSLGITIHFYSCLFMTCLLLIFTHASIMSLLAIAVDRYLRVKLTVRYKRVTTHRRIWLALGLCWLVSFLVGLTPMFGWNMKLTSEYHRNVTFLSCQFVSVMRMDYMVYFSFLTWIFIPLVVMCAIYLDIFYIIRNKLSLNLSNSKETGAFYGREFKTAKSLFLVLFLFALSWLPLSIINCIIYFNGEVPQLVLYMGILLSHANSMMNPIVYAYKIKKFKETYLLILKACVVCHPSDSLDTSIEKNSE
Experimental: as §1

adenosine A2B receptor, sequence (P29275 whole entry): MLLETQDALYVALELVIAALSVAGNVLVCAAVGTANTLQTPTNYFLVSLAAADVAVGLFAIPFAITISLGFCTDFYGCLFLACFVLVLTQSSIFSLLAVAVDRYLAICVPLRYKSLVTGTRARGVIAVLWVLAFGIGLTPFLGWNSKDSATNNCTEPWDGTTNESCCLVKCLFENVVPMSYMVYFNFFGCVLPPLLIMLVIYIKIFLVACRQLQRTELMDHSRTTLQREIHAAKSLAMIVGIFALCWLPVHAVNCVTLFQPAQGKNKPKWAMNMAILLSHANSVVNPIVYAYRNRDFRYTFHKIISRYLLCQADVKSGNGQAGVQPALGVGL

COCCC(=O)NC1CN(C(=O)c2nc(N[C@@H](C)c3cncc(F)c3)nc3cc(C)sc23)C1 [Example Z518, (S)—N-(1-(2-((1-(5-Fluoropyridin-3-yl)ethyl)amino)-6-methylthieno[3,2-d]pyrimidine-4-carbonyl)azetidin-3-yl)-3-methoxypropanamide]
Ratio (adenosine A2B receptor): 5.46
IC50 (adenosine A2B receptor): < 10 nM
IC50 (adenosine A2A receptor): 10 to 50 nM
IC50 (adenosine A1 receptor): > 500 nM
IC50 (adenosine A3 receptor): > 500 nM

C[C@H](Nc1nc(C(=O)N2CC(NC(=O)C3CCOC3)C2)c2sccc2n1)c1cncc(F)c1 (stereo partly drawn) [Example Z519, N-(1-(2-(((S)-1-(5-Fluoropyridin-3-yl)ethyl)amino)thieno[3,2-d]pyrimidine-4-carbonyl)azetidin-3-yl)tetrahydrofuran-3-carboxamide]
Ratio (adenosine A2B receptor): 3.87
IC50 (adenosine A2B receptor): < 10 nM
IC50 (adenosine A2A receptor): 10 to 50 nM
IC50 (adenosine A1 receptor): > 500 nM
IC50 (adenosine A3 receptor): > 500 nM

CCNC(=O)C1CCN(C(=O)c2nc(N[C@@H](C)c3cncc(F)c3)nc3ccsc23)C1 (stereo partly drawn) [Example Z520, N-Ethyl-1-(2-(((S)-1-(5-fluoropyridin-3-yl)ethyl)amino)thieno[3,2-d]pyrimidine-4-carbonyl)pyrrolidine-3-carboxamide]
Ratio (adenosine A2B receptor): 27.57
IC50 (adenosine A2B receptor): < 10 nM
IC50 (adenosine A2A receptor): 100 to 500 nM
IC50 (adenosine A1 receptor): > 500 nM
IC50 (adenosine A3 receptor): > 500 nM

Cc1cc2nc(N[C@@H](C)c3cncc(F)c3)nc(C(=O)N3CC(NC(=O)C4CC4)C3)c2s1 [Example Z522, (S)—N-(1-(2-((1-(5-Fluoropyridin-3-yl)ethyl)amino)-6-methylthieno[3,2-d]pyrimidine-4-carbonyl)azetidin-3-yl)cyclopropanecarboxamide]
Ratio (adenosine A2B receptor): 1.58
IC50 (adenosine A2B receptor): < 10 nM
IC50 (adenosine A2A receptor): 10 to 50 nM
IC50 (adenosine A1 receptor): > 500 nM
IC50 (adenosine A3 receptor): 100 to 500 nM

Cc1cc2nc(N[C@@H](C)c3cncc(F)c3)nc(C(=O)N3CC(NC(=O)C4CCOC4)C3)c2s1 (stereo partly drawn) [Example Z523, N-(1-(2-(((S)-1-(5-Fluoropyridin-3-yl)ethyl)amino)-6-methylthieno[3,2-d]pyrimidine-4-carbonyl)azetidin-3-yl)tetrahydrofuran-3-carboxamide]
Ratio (adenosine A2B receptor): 1.40
IC50 (adenosine A2B receptor): < 10 nM
IC50 (adenosine A2A receptor): 10 to 50 nM
IC50 (adenosine A1 receptor): > 500 nM
IC50 (adenosine A3 receptor): 100 to 500 nM

CC1CCN1C(=O)c1nc(N[C@@H](C)c2cncc(F)c2)nc2ccsc12 (stereo partly drawn) [Example Z524, (2-(((S)-1-(5-Fluoropyridin-3-yl)ethyl)amino)thieno[3,2-d]pyrimidin-4-yl)(2-methylazetidin-1-yl)methanone]
Ratio (adenosine A2B receptor): 11.94
IC50 (adenosine A2B receptor): < 10 nM
IC50 (adenosine A2A receptor): 50 to 100 nM
IC50 (adenosine A1 receptor): > 500 nM
IC50 (adenosine A3 receptor): > 500 nM

CC(C)(C)C(=O)N[C@H]1CCN(C(=O)c2nc(NCc3cncc(F)c3)nc3ccsc23)C1 [Example Z526, (S)—N-(1-(2-(((5-Fluoropyridin-3-yl)methyl)amino)thieno[3,2-d]pyrimidine-4-carbonyl)pyrrolidin-3-yl)pivalamide]
Ratio (adenosine A2B receptor): 4.26
IC50 (adenosine A2B receptor): 10 to 50 nM
IC50 (adenosine A2A receptor): 50 to 100 nM
IC50 (adenosine A1 receptor): > 500 nM
IC50 (adenosine A3 receptor): > 500 nM

CC(=O)NCC1CN(C(=O)c2nc(N[C@@H](C)c3cncc(F)c3)nc3ccsc23)C1 [Example Z528, (S)—N-((1-(2-((1-(5-Fluoropyridin-3-yl)ethyl)amino)thieno[3,2-d]pyrimidine-4-carbonyl)azetidin-3-yl)methyl)acetamide]
Ratio (adenosine A2B receptor): 44.92
IC50 (adenosine A2B receptor): < 10 nM
IC50 (adenosine A2A receptor): 100 to 500 nM
IC50 (adenosine A1 receptor): > 500 nM
IC50 (adenosine A3 receptor): > 500 nM

C[C@H](Nc1nc(C(=O)N2CC(CNC(=O)C(C)(C)C)C2)c2sccc2n1)c1cncc(F)c1 [Example Z529, (S)—N-((1-(2-((1-(5-Fluoropyridin-3-yl)ethyl)amino)thieno[3,2-d]pyrimidine-4-carbonyl)azetidin-3-yl)methyl)pivalamide]
Ratio (adenosine A2B receptor): 4.15
IC50 (adenosine A2B receptor): 10 to 50 nM
IC50 (adenosine A2A receptor): 100 to 500 nM
IC50 (adenosine A1 receptor): > 500 nM
IC50 (adenosine A3 receptor): > 500 nM

CC(=O)NC1CN(C(=O)c2nc(N[C@@H](C)c3cncc(F)c3)nc3ccsc23)C1 [Example Z530, (S)—N-(1-(2-((1-(5-Fluoropyridin-3-yl)ethyl)amino)thieno[3,2-d]pyrimidine-4-carbonyl)azetidin-3-yl)acetamide]
Ratio (adenosine A2B receptor): 6.99
IC50 (adenosine A2B receptor): 10 to 50 nM
IC50 (adenosine A2A receptor): 100 to 500 nM
IC50 (adenosine A1 receptor): > 500 nM
IC50 (adenosine A3 receptor): > 500 nM

C[C@H](Nc1nc(C(=O)N2CC(CNS(C)(=O)=O)C2)c2sccc2n1)c1cncc(F)c1 [Example Z531, (S)—N-((1-(2-((1-(5-Fluoropyridin-3-yl)ethyl)amino)thieno[3,2-d]pyrimidine-4-carbonyl)azetidin-3-yl)methyl)methanesulfonamide]
Ratio (adenosine A2B receptor): 19.43
IC50 (adenosine A2B receptor): 10 to 50 nM
IC50 (adenosine A2A receptor): 100 to 500 nM
IC50 (adenosine A1 receptor): > 500 nM
IC50 (adenosine A3 receptor): > 500 nM

CC(=O)N[C@@H]1CCN(C(=O)c2nc(N[C@@H](C)c3cncc(F)c3)nc3cc(C)sc23)C1 [Example Z532, N—((R)-1-(2-(((S)-1-(5-Fluoropyridin-3-yl)ethyl)amino)-6-methylthieno[3,2-d]pyrimidine-4-carbonyl)pyrrolidin-3-yl)acetamide]
Ratio (adenosine A2B receptor): 149.69
IC50 (adenosine A2B receptor): 10 to 50 nM
IC50 (adenosine A2A receptor): > 500 nM
IC50 (adenosine A1 receptor): > 500 nM
IC50 (adenosine A3 receptor): > 500 nM

Cc1cc2nc(N[C@@H](C)c3cncc(F)c3)nc(C(=O)NCCC3CN(C)C3)c2s1 [Example Z535, (S)-2-((1-(5-Fluoropyridin-3-yl)ethyl)amino)-6-methyl-N-(2-(1-methylazetidin-3-yl)ethyl)thieno[3,2-d]pyrimidine-4-carboxamide]
Ratio (adenosine A2B receptor): 244.67
IC50 (adenosine A2B receptor): 10 to 50 nM
IC50 (adenosine A2A receptor): > 500 nM
IC50 (adenosine A1 receptor): > 500 nM
IC50 (adenosine A3 receptor): > 500 nM

Cc1cc2nc(N[C@@H](C)c3cncc(F)c3)nc(C(=O)N3CC(N4CCCC4)C3)c2s1 [Example Z540, (S)-(2-((1-(5-Fluoropyridin-3-yl)ethyl)amino)-6-methylthieno[3,2-d]pyrimidin-4-yl)(3-(pyrrolidin-1-yl)azetidin-1-yl)methanone]
Ratio (adenosine A2B receptor): 33.20
IC50 (adenosine A2B receptor): 10 to 50 nM
IC50 (adenosine A2A receptor): 100 to 500 nM
IC50 (adenosine A1 receptor): > 500 nM
IC50 (adenosine A3 receptor): > 500 nM

Cc1cc2nc(N[C@@H](C)c3cncc(F)c3)nc(C(=O)N3CC(NC(=O)C4CCCO4)C3)c2s1 (stereo partly drawn) [Example Z541, N-(1-(2-(((S)-1-(5-Fluoropyridin-3-yl)ethyl)amino)-6-methylthieno[3,2-d]pyrimidine-4-carbonyl)azetidin-3-yl)tetrahydrofuran-2-carboxamide]
Ratio (adenosine A2B receptor): 1.64
IC50 (adenosine A2B receptor): 10 to 50 nM
IC50 (adenosine A2A receptor): 10 to 50 nM
IC50 (adenosine A1 receptor): 100 to 500 nM
IC50 (adenosine A3 receptor): 100 to 500 nM

Cc1cc2nc(N[C@@H](C)c3cncc(F)c3)nc(C(=O)N3CC(NC(=O)C4CCC4)C3)c2s1 [Example Z542, (S)—N-(1-(2-((1-(5-Fluoropyridin-3-yl)ethyl)amino)-6-methylthieno[3,2-d]pyrimidine-4-carbonyl)azetidin-3-yl)cyclobutanecarboxamide]
Ratio (adenosine A2B receptor): 1.45
IC50 (adenosine A2B receptor): 10 to 50 nM
IC50 (adenosine A2A receptor): 10 to 50 nM
IC50 (adenosine A1 receptor): > 500 nM
IC50 (adenosine A3 receptor): 50 to 100 nM

CC(=O)NC1CN(C(=O)c2nc(N[C@@H](C)c3cncc(F)c3)nc3cc(C)sc23)C1 [Example Z543, (S)—N-(1-(2-((1-(5-Fluoropyridin-3-yl)ethyl)amino)-6-methylthieno[3,2-d]pyrimidine-4-carbonyl)azetidin-3-yl)acetamide]
Ratio (adenosine A2B receptor): 18.71
IC50 (adenosine A2A receptor): 100 to 500 nM
IC50 (adenosine A1 receptor): > 500 nM
IC50 (adenosine A3 receptor): > 500 nM

Cc1cc2nc(N[C@@H](C)c3cncc(F)c3)nc(C(=O)N3CC(NC(=O)c4ccoc4)C3)c2s1 [Example Z546, (S)—N-(1-(2-((1-(5-Fluoropyridin-3-yl)ethyl)amino)-6-methylthieno[3,2-d]pyrimidine-4-carbonyl)azetidin-3-yl)furan-3-carboxamide]
Ratio (adenosine A2B receptor): 3.52
IC50 (adenosine A2B receptor): < 10 nM
IC50 (adenosine A2A receptor): 10 to 50 nM
IC50 (adenosine A1 receptor): > 500 nM
IC50 (adenosine A3 receptor): > 500 nM

C[C@H](Nc1nc(C(=O)N2CCC(C(=O)NOC(C)(C)C)C2)c2sccc2n1)c1cncc(F)c1 (stereo partly drawn) [Example Z549, N-(tert-Butoxy)-1-(2-(((S)-1-(5-fluoropyridin-3-yl)ethyl)amino)thieno[3,2-d]pyrimidine-4-carbonyl)pyrrolidine-3-carboxamide]
Ratio (adenosine A2B receptor): 0.63
IC50 (adenosine A2B receptor): 10 to 50 nM
IC50 (adenosine A2A receptor): < 10 nM
IC50 (adenosine A1 receptor): > 500 nM
IC50 (adenosine A3 receptor): > 500 nM

C[C@H](Nc1nc(C(=O)N2CC(CN(C)C(=O)C(C)(C)C)C2)c2sccc2n1)c1cncc(F)c1 [Example Z551, (S)—N-((1-(2-((1-(5-Fluoropyridin-3-yl)ethyl)amino)thieno[3,2-d]pyrimidine-4-carbonyl)azetidin-3-yl)methyl)-N-methylpivalamide]
Ratio (adenosine A2B receptor): 1.68
IC50 (adenosine A2B receptor): 10 to 50 nM
IC50 (adenosine A2A receptor): 10 to 50 nM
IC50 (adenosine A1 receptor): > 500 nM
IC50 (adenosine A3 receptor): > 500 nM

Cc1cc2nc(N[C@@H](C)c3ccccn3)nc(C(=O)N3CC(C(=O)OC(C)(C)C)C3)c2s1 [Example Z552, tert-Butyl (S)-1-(6-methyl-2-((1-(pyridin-2-yl)ethyl)amino)thieno[3,2-d]pyrimidine-4-carbonyl)azetidine-3-carboxylate]
Ratio (adenosine A2B receptor): 2.32
IC50 (adenosine A2B receptor): 10 to 50 nM
IC50 (adenosine A2A receptor): 10 to 50 nM
IC50 (adenosine A1 receptor): > 500 nM
IC50 (adenosine A3 receptor): 100 to 500 nM

COCC1CN(C(=O)c2nc(N[C@@H](C)c3ccccn3)nc3c(C)csc23)C1 [Example Z553, (S)-(3-(methoxymethyl)azetidin-1-yl)(7-methyl-2-((1-(pyridin-2-yl)ethyl)amino)thieno[3,2-d]pyrimidin-4-yl)methanone]
Ratio (adenosine A2B receptor): 3.87
IC50 (adenosine A2B receptor): < 10 nM
IC50 (adenosine A2A receptor): 10 to 50 nM
IC50 (adenosine A1 receptor): > 500 nM
IC50 (adenosine A3 receptor): 100 to 500 nM
